What was measured:
[1] = Solubility in organic solvents; assay type: physicochemical; conditions: 25° C., amount of solute (g) based on 100 ml of solvent
Protocol: The solubility of Synthesis Examples 1 to 3 and Synthesis Comparative Example 1 in organic solvents (1,2-dichloroethane, toluene and tetrahydrofuran) at 25° C. was measured. The solubility was indicated by the amount of solute (g) based on 100 ml of solvent.

[2] = Dissolving the charge transporting agent in dichloroethane solution of polycarbonate resin for the charge transporting layer; assay type: physicochemical; conditions: 8.0% dichloroethane solution of polycarbonate resin (Iupilon Z)
Protocol: On the other hand, 1.5 parts of the p-terphenyl compound (compound No. 1) synthesized in Synthesis Example 1 was added as a charge transporting agent to 18.75 parts of a 8.0% dichloroethane solution of a polycarbonate resin (Iupilon Z, manufactured by Mitsubishi Engineering-Plastics Corporation), followed by application of an ultrasonic wave to completely dissolve the p-terphenyl compound. This solution was applied onto the above-mentioned charge generating layer with a wire bar, and dried at 110° C. under normal pressure for 30 minutes to form a charge transporting layer having a film thickness of 20 μm, thus preparing photoconductor No. 1.
Photoconductor No. 7 was prepared in the same manner as in Photoconductor Example 1 with the exception that the charge transporting agent used in Photoconductor Example 1 was changed to the same amount of the p-terphenyl compound (comparative compound No. 1) synthesized in Synthesis Comparative Example 1.
On the other hand, 0.9 part of the p-terphenyl compound (compound No. 1) synthesized in Synthesis Example 1 was added as a charge transporting agent to 11.25 parts of a 8.0% dichloroethane solution of a polycarbonate resin (Iupilon Z, manufactured by Mitsubishi Engineering-Plastics Corporation), followed by application of an ultrasonic wave to completely dissolve the p-terphenyl compound. […]

| Solubility in 1,2-Dichloroethane [1] | Solubility in Tetrahydrofuran [1] | Solubility in Toluene [1] | melting point | Solubility of charge transporting agent when preparing the photoconductor [2] | Structure (SMILES) |
| --- | --- | --- | --- | --- | --- |
| 3.5 g/100 ml | 18.1 g/100 ml | 9.3 g/100 ml | 180.8 to 183.4 °C | – | COc1ccc(N(c2ccccc2)c2ccc(-c3ccc(-c4ccc(N(c5ccccc5)c5ccc(OC)cc5C)cc4)cc3)cc2)c(C)c1 [Compound No. 2, N,N′-di(4-methoxy-2-methylphenyl)-N,N′-diphenyl-4,4″-diamino-p-terphenyl] |
| 2.3 g/100 ml | 12.4 g/100 ml | 2.2 g/100 ml | 232.5 to 233.5 °C | insoluble | Cc1ccc(N(c2ccc(C)cc2)c2ccc(-c3ccc(-c4ccc(N(c5ccc(C)cc5)c5ccc(C)cc5)cc4)cc3)cc2)cc1 [Comparative Compound 1, N,N,N′,N′-tetra-p-tolyl-4,4″-diamino-p-terphenyl] |
| – | – | – | 167.2 to 168.2 °C | – | Cc1ccc(N(c2ccccc2)c2ccc(-c3ccc(-c4ccc(N(c5ccccc5)c5ccc(C)cc5)cc4)cc3)cc2)cc1 [Compound No. 17, N,N′-diphenyl-N,N′-di-p-tolyl-4,4″-diamino-p-terphenyl] |

Further lines, the compound ahead of its results:

| Structure (SMILES) | Solubility in 1,2-Dichloroethane [1] | Solubility in Tetrahydrofuran [1] | Solubility in Toluene [1] | melting point | Solubility of charge transporting agent when preparing the photoconductor [2] |
| --- | --- | --- | --- | --- | --- |
| Cc1ccc(N(c2ccc(-c3ccc(-c4ccc(N(c5ccc(C)cc5)c5ccc6c(c5)CCC6)cc4)cc3)cc2)c2ccc3c(c2)CCC3)cc1 [Compound No. 1, N,N′-bisindane-5-yl-N,N′-di-p-tolyl-4,4″-diamino-p-terphenyl] | 4.2 g/100 ml | 20.8 g/100 ml | 11.0 g/100 ml | 207.4 to 208.1 °C | – |
| COc1ccc(N(c2ccc(-c3ccccc3)cc2)c2ccc(-c3ccc(-c4ccc(N(c5ccc(-c6ccccc6)cc5)c5ccc(OC)cc5C)cc4)cc3)cc2)c(C)c1 [Compound No. 3, N,N′-bis-biphenyl-4-yl-N,N′-di-4-methoxy-2-methylphenyl-4,4″-diamino-p-terphenyl] | 30.0 or more g/100 ml | 30.0 or more g/100 ml | 30.0 or more g/100 ml | 232.6 to 233.2 °C | – |
